This is an account of results in US7033829B2, “Method to inhibit cell growth using oligonucleotides” (Trustees of Boston University, priority 2000, dated 2006).

Oligonucleotides are written 5' to 3', each unit as a sugar letter and its base; * is a phosphorothioate linkage, no mark a phosphodiester; rarer units and linkages stand in square brackets, end groups in braces. Plain capitals give the bases only. d = 2'-deoxy (DNA); {P} = phosphate

Data set [1] relates to squamous carcinoma line SCC12F. Nature of the data set: Cell yields of UVA-irradiated SCC12F cells after pretreatment. The data set is classed as cell-based, human. The note with it: 100 μM 3 days pretreatment; 10 J/cm^2 UVA. As for the experimental part: Cells from the well differentiated squamous carcinoma line SCC12F (gift of Dr. James Rheinwald, Harvard University) were treated with 100 μM pTpT or diluent as control for 3 days. Then cells were re-plated in medium lacking pTpT and were sham- or UV-irradiated with 10 J/cm^2 UVA (Sellas Sunlight UVA lamp). Cell yields were determined at different intervals after UV irradiation.

Data set [2] concerns Primary newborn fibroblasts. Kind of data set: Protection of fibroblasts against H2O2. The data set is classed as cell-based. The following applies: for cell yields higher compared to diluent pre-treated control: 10 μM 3 days, within 72 hours. Here is the method:
Primary newborn fibroblasts were treated for 3 days with 10 μM pTpT or diluent as control and then treated with 5×10^−5 or 5×10^−4 M H2O2. Within 72 hours of H2O2 exposure, cell yields of pTpT pre-treated cultures were 45±1% and 139±5% higher, respectively, compared to diluent pre-treated control samples. 72 hours after exposure of the […] H2O2 dose, only 9.6±2.4% of the diluent pre-treated cells survived.

In a further data set the test system is S91 cells. Kind of data set: Cellular uptake of FAM-labeled oligonucleotides in S91 cells. The following applies: 4 hours. The data set is classed as in vitro ADME, mouse. Here is the method:
Fluorescein phosphoramidite (FAM) labeled oligonucleotides were added to cultures of S91 cells for 4 hours and the cells were then prepared for confocal microscopy. Nuclei, identified by staining with propidium iodide, appeared red and FAM-labeled oligonucleotides appeared green. Co-localization of red and green signals was assigned a yellow color by the computer. […] There was no change in the profile of oligonucleotide uptake after 6 and 24 hours.

The test system of data set [3] is BP DNA adducts (CAT reporter plasmid) in human keratinocytes. Nature of the data set: Repair of BP-damaged CAT reporter plasmid in keratinocytes. The data set is classed as cell-based. The note with it: 100 μM 48 hours; ~25 or ~50 adducts/plasmid. As for the experimental part: The pCAT vector (Promega) was treated with benzo[a]pyrene-7,8-diol-9,10-epoxide (BP) as described (Athas et al. Cancer Res 1991) to produce less damaged and more damaged plasmids, previously shown to be instructive in studies examining different repair capacities in human cells. Based on the incorporation of ^3H-BPDE into the DNA, the less damaged plasmid contained 25 adducts per 5 kb plasmid and the more damaged plasmid contained 50 adducts. This non-replicating vector contains the chloramphenicol acetyltransferase gene under control of SV40 promoter and enhancer sequences. […] CAT enzyme activity was determined using the liquid scintillation counting protocol and components of the assay system kit (Promega). ^14C-labeled chloramphenicol[50–60 mCi(1.85–2.22 GBq)/mmol] was purchased from New England Nuclear (Boston, Mass.). […]
To measure the repair of BP DNA adducts, non-replicating BP-damaged reporter plasmid system containing the bacterial chloramphenicol acetyltransferase (CAT) gene was used as described in Example 8. With first passage human keratinocytes, the transfection efficiency, as measured by the cotransfected β-galactosidase expression vector, was 40–70%.

The test system of data set [4] is human melanoma line MM-AN. Kind of data set: FACS analysis of MM-AN melanoma cells. Format: cell-based. The note with it: 40 μM. Here is the method: Proteins were analyzed by denaturing polyacrylamide gel electrophoresis (SDS-PAGE), using 10% polyacrylamide, and western blot analysis was done with an E2F1-specific monoclonal antibody (KH95 Santa Cruz Biotechnology, Santa Cruz, Calif.), and p73 analyzed using a polyclonal antibody (AB-4 from Oncogene Research Products, San Diego, Calif.). […] In order to determine the contribution of p73 to cell death, MM-AN melanoma cells were stably transfected with a dominant negative p73 (p73DN) (Irwin et al., Nature 402:645–648) construct or empty vector as a control (p73^DN-containing vector a gift from Dr. William Kaelin, Dana Farber Institute, Boston) and paired cultures were supplemented with 40 μM 11mer-1 or diluent alone, then harvested at 72 hours for FACS analysis. […] The above-mentioned differentiation markers are expressed in normal human melanocytes. It appears that the loss of expression of these antigens is a mechanism that a subset of human melanomas uses to escape immunosurveillance defenses. Several peptides from these antigens are targets of tumor infiltrating cytotoxic lymphocytes. Encouraging results have been obtained in vivo with different vaccination strategies using antigenic peptides from the above antigens.

The test system of data set [5] is MM-AN cells. Nature of the data set: Metastatic potential of pretreated MM-AN cells in SCID mice. Format: in vivo. The following applies: for animals that developed multiple metastases: 5 mice per group, 40 days; for METASTASIS FREE: animals of 5; for Total Tumor Load (5 animals): mouse, in vivo; for Average tumors per animal: visible tumors, 40 days (diluent 15.8). Here is the method:
To study the effect of T-oligo on the metastatic potential of melanoma cells, cultures of MM-AN cells were treated for 48 hours with T-oligo, complement or diluent alone and harvested as described above. 1×10^6 cells in balanced salt solution were injected into the lateral tail vein of 5-week old SCID mice (3 groups of 5 mice). After 40 days, mice were sacrificed by CO2 inhalation, an autopsy performed and organs examined macroscopically for visible metastatic lesions.

For data set [6], the system named is MM-AN cells. Nature of the data set: Tumorigenicity of pretreated MM-AN cells in SCID mice. The following applies: cells pretreated 40 μM 48 hours; day 18 (diluent 322±45). Format: in vivo. Here is the method:
To study the effect of T-oligo on the tumorigenicity of MM-AN cells, cells were grown in DMEM with 5% fetal bovine serum (FBS) and treated with 40 μM of T-oligo, complement, or diluent alone for 48 hours. The cells were then harvested with trypsin/EDTA and the percent viability determined by trypan blue exclusion. […] The tumorigenicity of these melanoma cells was determined by injecting 1×10^6 viable cells in balanced salt solution subcutaneously over the right scapular region of SCID mice (3 groups of 5 mice) to produce tumors. The animals were sacrificed by CO2 inhalation 18 days after treatment and the tumor size evaluated with calipers. Tumors were processed for hematoxylin and eosin staining and the melanocytic origin of the tumors was confirmed by immunohistochemical staining of the lesion using HMB-45 monoclonal antibody, which recognizes gp-100, a conventional marker for human melanoma.

For thymidine dinucleotide [pTpT], the “yields of UVA irradiated cells” value in data set [1] was “increased the yields of UVA irradiated cells”. In addition, in data set [2] (5×10^−4 M H2O2), the “cell yields higher compared to diluent pre-treated control” value worked out at 139±5% and the “increase of cell survival” value was 2–9 fold. Besides, the “cell yields higher compared to diluent pre-treated control” value in data set [2] (5×10^−5 M H2O2) is 45±1%. The “protection of cell survival” value in data set [2] (low H2O2 dose) was “complete protection”. In addition, the “cellular uptake and localization (confocal microscopy, FACS)” value in the data set with S91 cells was “strong green fluorescence in the cytoplasm, but only a small amount of nuclear localization”. Besides, in data set [3], the “CAT expression relative to undamaged control vector, compared to diluent” value was “approximate doubling of CAT expression”.

“pGAGTATGAG (DNA, 5' {P}, backbone not given here) [SEQ ID NO: 1]”: the “cellular uptake and localization (confocal microscopy, FACS)” value with S91 cells is reported as “intense staining that strongly localized to the nucleus”.

As to “pGTTAGGGTTAG (DNA {P}-dGdTdTdAdGdGdGdTdTdAdG) [SEQ ID NO: 5]”, the cell cycle result in data set [4] is “first entered an S-phase arrest”. Also, the “apoptosis rate of cells expressing p73^DN” value in data set [4] (72 hours) was “at half the rate of control cells”. In addition, in data set [4] (by 72 hours), the “apoptosis (sub-G0/G1 DNA content)” value is reported as “a substantial portion of the cells were undergoing apoptosis”. Moreover, in the data set on MM-AN cells [5], the “animals that developed multiple metastases” value was “one of five animals”. Moreover, the Animals with tumors in the data set with MM-AN cells [5] (Site: Adrenal) is 1/5; with MM-AN cells [5] (Site: Bone) it was 0/5; in the data set on MM-AN cells [5] (Site: Brain) it was 1/5; in the data set with MM-AN cells [5] (Site: Brown fat) it was 0/5; in the data set on MM-AN cells [5] (Site: Kidney), 0/5; with MM-AN cells [5] (Site: Liver), 0/5. The Animals with tumors with MM-AN cells [5] (Site: Lung), in the data set with MM-AN cells [5] (Site: Miscellaneous) and with MM-AN cells [5] (Site: Pancreas) was 0/5 each time. Besides, the Total tumors came to 2 with MM-AN cells [5] (Site: Adrenal); 0 with MM-AN cells [5] (Site: Bone); 2 in the data set on MM-AN cells [5] (Site: Brain); 0 in the data set on MM-AN cells [5] (Site: Brown fat); 0 with MM-AN cells [5] (Site: Kidney); 0 in the data set with MM-AN cells [5] (Site: Liver). The Total tumors with MM-AN cells [5] (Site: Lung), in the data set with MM-AN cells [5] (Site: Miscellaneous) and with MM-AN cells [5] (Site: Pancreas) was 0 throughout. Moreover, the “METASTASIS FREE” value with MM-AN cells [5] was 4/5. Moreover, the “reduction of average volume of macroscopic metastatic tumors” value in the data set on MM-AN cells [5] (compared to complement treated animals) is about 80%; with MM-AN cells [5] (compared to diluent treated animals) it was “about 85%”. Further, the “Total Tumor Load (5 animals)” value with MM-AN cells [5] is 4. The “Average tumors per animal” value in the data set on MM-AN cells [5] amounted to 0.8. Also, the Mean tumor volume in the data set on MM-AN cells [6] is given as 56±13 mm^3.

Take “pCTAACCCTAAC (DNA, 5' {P}, backbone not given here) [SEQ ID NO: 9, reference compound]”: the “animals that developed multiple metastases” value with MM-AN cells [5] is given as “All five animals”. Further, the Animals with tumors is given as 2/5 with MM-AN cells [5] (Site: Adrenal); 1/5 in the data set on MM-AN cells [5] (Site: Bone); 3/5 with MM-AN cells [5] (Site: Brain); 3/5 in the data set on MM-AN cells [5] (Site: Brown fat); 4/5 with MM-AN cells [5] (Site: Kidney); 2/5 with MM-AN cells [5] (Site: Liver). Moreover, the values for the Animals with tumors in the data set on MM-AN cells [5] (Site: Lung), with MM-AN cells [5] (Site: Miscellaneous) and in the data set on MM-AN cells [5] (Site: Pancreas) were 3/5, 1/5 and 4/5, respectively. For the same substance, the Total tumors in the data set with MM-AN cells [5] (Site: Adrenal) worked out at 3; in the data set with MM-AN cells [5] (Site: Bone), 3; in the data set on MM-AN cells [5] (Site: Brain), 3; with MM-AN cells [5] (Site: Brown fat), 8; with MM-AN cells [5] (Site: Kidney), 7; in the data set with MM-AN cells [5] (Site: Liver), 4. Also, the Total tumors with MM-AN cells [5] (Site: Lung) was determined as 6; in the data set on MM-AN cells [5] (Site: Miscellaneous) it was 7; in the data set on MM-AN cells [5] (Site: Pancreas), 7. In the data set on MM-AN cells [5], the “METASTASIS FREE” value is on record as 0/5. Also, the “Total Tumor Load (5 animals)” value in the data set with MM-AN cells [5] was 48. Moreover, the “Average tumors per animal” value with MM-AN cells [5] worked out at 9.6. Also, the Mean tumor volume in the data set on MM-AN cells [6] amounted to 238±50 mm^3.
